Measured values taken from US20060178307A1, “Modulation of NMDA receptor currents via orexin receptor and/or CRF receptor” (priority 2005, published 2006).

Tested on: locomotor activity
Test: Locomotor sensitization to cocaine, i.p. OXR1 antagonist, open field
Assay type: in vivo, Sprague-Dawley rats
Description: To determine if orexin signaling plays a role in behavioral sensitization to cocaine, either the OXR1 antagonist SB 334867 (10 mg/kg, i.p.) or vehicle was injected 15 min prior to injecting cocaine (15 mg/kg, i.p) or saline (0.9%), and then the rats were placed in an open field chamber to measure locomotor activity for 1 hour each day for 5 days.
Therefore, to determine if expression of cocaine sensitization requires release of orexin acting at the OXR1 receptor, the OXR1 antagonist SB 334867 (10 mg/kg) was injected with cocaine (15 mg/kg) on day 6 into either cocaine-sensitized or saline-treated rats.
Male Sprague-Dawley Rats (P21-P30; Charles River, N.C.) were singly housed with food and water available ad libitum. A 12 hr light/dark cycle was used, with the lights on at 7:00 A.M. All cocaine injections and behavioral testing were performed during the light cycle for consecutive days. The four treatment groups consisted of rats given 5 daily i.p. injections of SB 334867 (10 mg/kg) 15 min preceding i.p. injection of cocaine (15 mg/kg) or saline (0.9% NaCl), or i.p. injections of vehicle (10% DMSO and 25% β-hydroxy cyclodextrin in saline) 15 min preceding i.p. injection of cocaine or saline. All animals were habituated to the photocell boxes (Med Associates, St. Albans, Vt.) for 2 hours prior to the start of the experiment. All animals were further habituated to the photocell boxes for 30 min prior to 60 min testing session. Locomotor activity was measured in 17″×17″ chambers lined with three 16-beam I/R arrays. A 50 ms scanning rate was used for measurement of beams broken. Distance traveled was measured using Open Field Activity Software (Med Associates, Inc) and analyzed for estimates of locomotion based on the movement of a given distance and resting delay (movement in a given period of time).

In the case of `Cc1nc2ccc(NC(=O)Nc3ccnc4cccnc34)cc2o1.Cl` [SB 334867, 1-(2-methylbenzoxazol-6-yl)-3-[1,5]naphthyridin-4-yl urea hydrochloride], the baseline locomotor activity (10 mg/kg i.p. with saline, n=13) is reported as “did not reduce”, the “development of sensitization to cocaine” value (10 mg/kg i.p., 5 days) is reported as “significantly blocked” and the “locomotor activity on day 6 (expression of cocaine sensitization)” value (10 mg/kg injected with cocaine on day 6, n=7 in each group) is reported as “not significantly reduced”. The “distance traveled on day 5” value (SB 334867 10 mg/kg i.p. 15 min prior to cocaine 15 mg/kg i.p.) was 8504±2564 cm and the “locomotor activity on day 1” value (cocaine-treated rats given SB334867 10 mg/kg, n=11) was 3579±1079 cm.
